Data set [1] has as its target T1, NR2B subunit containing NMDA receptor (Rattus norvegicus, UniProt P35439+Q00960).
T1 construct: (+)-(1S, 2S)-1-(4-hydroxy-phenyl)-2-(4-hydroxy-4-phenylpiperidino)-1-propanol from rat forebrain membranes; from tissue; host or cells: forebrain membranes of adult male CD rats
In words: Displacement of specific binding of racemic [3H](+)-(1S,2S)-1-(4-hydroxy-phenyl)-2-(4-hydroxy-4-phenylpiperidino)-1-propanol ([3H]CP-101,606) from rat forebrain membranes. As to conditions: ratio of the IC50s; greater than three is considered selective for NR2B over α1. How it is done:
This affinity is assessed in a radioligand binding assay as described later in this application.
This affinity is assessed in a radioligand binding assay as described below.
The binding of racemic [^3H] […] Forebrains of adult male CD rats are homogenized in 0.32M sucrose at 4° C. The crude nuclear pellet is removed by centrifugation at 1,000×g for 10 minutes, and the supernatant centrifuged at 17,000×g for 25 minutes. The resulting pellet is resuspended in 5 mM Tris acetate pH 7.4 at 4° C. for 10 minutes to lyse cellular particles and again centrifuged at 17,000×g. The resulting pellet is washed twice in Tris acetate, resuspended at 10 mg protein/ml and stored at −20° C. until use.
For binding assays, membranes are thawed, homogenized, and diluted to 0.5 mg protein/ml with 50 mM Tris HCl, pH 7.4. Compounds under study are added at various concentrations followed by racemic [^3H] […] Following incubation for 20 min at 30° C. in a shaking water bath, samples are filtered onto Whatman GFB glass fiber filters using a MB-48R Cell Harvester (Brandel Research and Development Laboratories, Gaithersburg Md.). Filters are washed for 10 s with ice cold Tris HCl buffer and the radioactivity trapped on the filter quantified by liquid scintillation spectroscopy. Nonspecific binding is determined in parallel incubations containing 100 μM racemic (+)-(1 S, 2S)-1-(4-hydroxy-phenyl)-2-(4-hydroxy-4-phenylpiperidino)-1-propanol. Specific binding is defined as total binding minus nonspecific binding.
Affinity for the NR^2B subunit containing NMDA receptor is measured as the IC50 for displacement of specific binding of racemic [^3H] […] Affinity for the α1-adrengergic receptor is defined as the IC50 for displacement of specific binding of racemic [^3H]prazosin from rat brain membranes, measured as described by Greengrass and Bremner (Binding Characteristics of [3H]prazosin to Rat Brain α-Adrenergic Receptors, European Journal of Pharmacology, 55, 323-326, (1979)).

The target in data set [2] is α1-adrenergic receptor. In words: Displacement of specific binding of [3H]prazosin from rat forebrain membranes. Conditions: IC50 for displacement of specific binding, 0.2 nM radioligand. How it is done: Compounds of the formula I have selectivity for NR^2B subunit-containing NMDA receptors over α1-adrengergic receptors. Affinity for the NR^2B subunit containing NMDA receptor is measured as the IC50 for displacement of specific binding of racemic [^3H] (+)-(1S, 2S)-1-(4-hydroxy-phenyl)-2-(4-hydroxy-4-phenylpiperidino)-1-propanol from rat forebrain membranes (described above). Affinity for the α1-adrengergic receptor is defined as the IC50 for displacement of specific binding of racemic [^3H]prazosin from rat brain membranes, measured as described by Greengrass and Bremner (Binding Characteristics of [3H]prazosin to Rat Brain α-Adrenergic Receptors, European Journal of Pharmacology, 55, 323-326, (1979)).
Forebrains of adult male Sprague Dawley rats are homogenized in 20 volumes of ice cold 50 mM Tris/HCl buffer (pH 7.7). The homogenate is centrifuged at 50,000×g for 10 minutes at 4° C. The pellet is resuspended and centrifuged under identical conditions and the final pellet is resuspended in 80 volumes of 50 mM Tris/HCl (pH 8.0) at 4° C.
For binding assays, compounds under study are added at various concentrations to 500 μg membrane protein in 1 ml of 50 mM Tris/HCl buffer, followed by [^3H]prazosin (Amersham, specific activity 33 Ci/mmol, 0.2 nM final concentration). Following incubation for 30 min at 25° C. in a shaking water bath, samples are filtered onto Whatman GFB glass fiber filters using a MB-48R Cell Harvester (Brandel Research and Development Laboratories, Gaithersburg Md.). Filters are washed three times for 10 s with ice cold Tris HCl buffer and the radioactivity trapped on the filter quantified by liquid scintillation spectroscopy. Nonspecific binding is determined in parallel incubations containing 100 nM prazosin. Specific binding is defined as total binding minus nonspecific binding.

Where only a bound is given, the exact number is not on record here.

From patent US6821985B2, “Pharmaceutical combinations for the treatment of stroke and traumatic brain injury” (Pfizer, Inc., priority 2000, dated 2004) come the findings set out here.

T1 sequence (Q00960 27-1482, other chains not shown): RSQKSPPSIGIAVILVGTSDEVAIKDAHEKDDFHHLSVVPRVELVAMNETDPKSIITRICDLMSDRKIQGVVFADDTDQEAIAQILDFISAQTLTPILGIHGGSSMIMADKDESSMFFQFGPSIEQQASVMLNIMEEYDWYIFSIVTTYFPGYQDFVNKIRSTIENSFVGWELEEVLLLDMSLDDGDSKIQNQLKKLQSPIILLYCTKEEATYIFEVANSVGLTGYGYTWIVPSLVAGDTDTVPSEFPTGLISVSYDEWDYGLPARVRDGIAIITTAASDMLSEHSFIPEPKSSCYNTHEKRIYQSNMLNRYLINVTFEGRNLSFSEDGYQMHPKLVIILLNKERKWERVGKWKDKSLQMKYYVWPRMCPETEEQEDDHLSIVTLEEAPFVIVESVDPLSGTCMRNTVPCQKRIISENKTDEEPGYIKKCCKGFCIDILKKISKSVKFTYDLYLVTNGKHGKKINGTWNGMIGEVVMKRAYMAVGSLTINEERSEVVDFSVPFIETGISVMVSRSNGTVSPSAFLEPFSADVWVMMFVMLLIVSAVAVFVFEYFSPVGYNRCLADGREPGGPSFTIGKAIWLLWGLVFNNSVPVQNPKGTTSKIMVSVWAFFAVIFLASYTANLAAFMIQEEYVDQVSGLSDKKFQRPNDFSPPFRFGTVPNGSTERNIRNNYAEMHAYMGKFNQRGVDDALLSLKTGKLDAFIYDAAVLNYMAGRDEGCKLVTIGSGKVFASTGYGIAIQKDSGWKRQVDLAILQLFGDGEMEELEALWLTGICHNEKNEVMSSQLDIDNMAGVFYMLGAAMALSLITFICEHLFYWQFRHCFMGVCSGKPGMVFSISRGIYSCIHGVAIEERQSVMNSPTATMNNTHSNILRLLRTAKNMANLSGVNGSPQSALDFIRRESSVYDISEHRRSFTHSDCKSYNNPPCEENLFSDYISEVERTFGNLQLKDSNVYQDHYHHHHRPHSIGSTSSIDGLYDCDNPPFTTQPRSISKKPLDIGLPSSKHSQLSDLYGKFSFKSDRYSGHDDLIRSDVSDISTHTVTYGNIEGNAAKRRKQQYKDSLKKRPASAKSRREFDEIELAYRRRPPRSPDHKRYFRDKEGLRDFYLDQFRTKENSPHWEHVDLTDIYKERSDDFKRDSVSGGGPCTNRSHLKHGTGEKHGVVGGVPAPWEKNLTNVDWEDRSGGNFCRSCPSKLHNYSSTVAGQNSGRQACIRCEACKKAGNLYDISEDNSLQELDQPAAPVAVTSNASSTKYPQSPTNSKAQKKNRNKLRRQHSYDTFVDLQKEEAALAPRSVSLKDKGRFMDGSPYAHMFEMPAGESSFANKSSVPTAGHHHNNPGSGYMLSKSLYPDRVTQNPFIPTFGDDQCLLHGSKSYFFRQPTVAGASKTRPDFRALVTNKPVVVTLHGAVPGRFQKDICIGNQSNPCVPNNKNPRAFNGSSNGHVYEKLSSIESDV

`Oc1ccc2c(c1)OCC(N1CCC(O)(c3ccc(F)cc3)CC1)[C@H]2O` (stereo in doubt) showed a melting point of 159 to 160 °C. `COc1cc([C@H](O)[C@H](C)N2CCC(O)(c3ccccc3)CC2)ccc1O` [(1S, 2S)-1-(4-hydroxy-3-methoxyphenyl)-2-(4-hydroxy-4-phenylpiperidino)-1-propanol]: the “Ratio [^3H]Prazosin/[^3H] (+)-(1S, 2S)-1-(4-hydroxy-phenyl)-2-(4-hydroxy-4-phenylpiperidino)-1-propanol” value (“Ratio [^3H]Prazosin/[^3H]” below) in data set [1] turned out to be 86. In data set [2], this compound gave a half-maximal inhibitory concentration (IC50) of 8.1 µM. Take `Oc1ccc2c(c1)OC[C@@H](N1CCC(O)(c3ccc(F)cc3)CC1)[C@H]2O` [(3R, 4S)-3-(4-(4-fluorophenyl)-4-hydroxypiperidin-1-yl)-chroman-4,7-diol]: the “Ratio [^3H]Prazosin/[^3H]” value in data set [1] is “≧555”. This compound also had an IC50 in data set [2] of over 10 µM.

Compound `C[C@@H]([C@@H](O)c1ccc(O)cc1)N1CCC(O)(c2ccccc2)CC1` [(+)-(1S, 2S)-1-(4-hydroxy-phenyl)-2-(4-hydroxy-4-phenylpiperidino)-1-propanol] returned a half-maximal inhibitory concentration (IC50) in data set [2] of 19.5 µM. As to `OC(CN1CCC(Cc2ccc(F)cc2)CC1)c1ccc(Cl)cc1` (centres unmarked) [Eliprodil, reference compound], in data set [1], the “Ratio [^3H]Prazosin/[^3H]” value is listed as 2.2. In data set [2], this compound showed an IC50 of 0.98 ± 0.22 µM.

Broadly, the melting point is the temperature of the solid-liquid transition. As usually defined, the IC50 is the concentration needed to halve the response being measured.
